From patent publication US6653486B2, “Spiroorthocarbonates containing epoxy groups” (Curators of the University of Missouri, priority 1999, dated 2003) come the findings set out here.

Data set [1] is described as follows: Vinyl ether homopolymerization PDSC with and without EDMAB (Table 2). From the text: For the experiments reported in Table 2, the photopolymerization of various vinyl ethers with and without the use of an electron donor to promote the reaction are reported. Data showing runs where EDMAB was used to promote the reaction are shown in parentheses after the numbers corresponding to runs without EDMAB.

As for `C=COCCCCO` [BDVE, butanediol vinyl ether], the Rate Constant k in data set [1] (with EDMAB) was 3.6 min⁻¹; in data set [1] (without EDMAB) it was 1.1 min⁻¹.
On to `C=COCC1CCC(COC=C)CC1` (stereo not shown) [CHDMDVE, 1,4-cyclohexanedimethanol divinyl ether], for which the results for the Rate Constant k in data set [1] (with EDMAB) and in data set [1] (without EDMAB) were 2.8 min⁻¹ and 0.5 min⁻¹, respectively.
In the case of `CCC(=O)OCC1(CC)COC2(OC1)OCC(CC)(COC(=O)CC)CO2` (stereo not shown) [DEDPM, 3,9-Diethyl-3,9-dipropionyloxymethyl-1,5,7,11-tetraoxaspiro[5.5]undecane], the melting point – broadly, the temperature, or range, at which the solid turns liquid – turned out to be 68.1 °C.
Take `C=COCCOCCOC=C` [DEGDVE, di(ethylene glycol)divinyl ether]: the Rate Constant k is 1.4 min⁻¹ in data set [1] (with EDMAB) and 1.3 min⁻¹ in data set [1] (without EDMAB).
In turn, `FC(F)(F)C1CCOC2(OCCC(C(F)(F)F)O2)O1` (stereo not shown) [DTFM, 2,8-Ditrifluoromethyl-1,5,7,11-tetraoxaspiro[5.5]undecane] came in with a melting point of 122.4 °C.
Turning to `C=COCCOC=C` [EGDVE, ethylene glycol divinyl ether], the results for the Rate Constant k in data set [1] (with EDMAB) and in data set [1] (without EDMAB) were 10.6 min⁻¹ and 3.6 min⁻¹, respectively.
Turning to `C=COCC1CO1` (stereo not shown) [GVE, glycidyl vinyl ether], the figures for the Rate Constant k in data set [1] (with EDMAB) and in data set [1] (without EDMAB) were 0.8 min⁻¹ and 1.1 min⁻¹, respectively.
Take `C=COCCOCCOCCOC=C` [TEGDVE, tri(ethylene glycol)divinyl ether]: the Rate Constant k in data set [1] (with EDMAB) was 11.1 min⁻¹; in data set [1] (without EDMAB), 2.1 min⁻¹.
For hexanediol divinyl ether [HDDVE], the results for the Rate Constant k in data set [1] (with EDMAB) and in data set [1] (without EDMAB) were 15.5 min⁻¹ and 1.4 min⁻¹, respectively.
